Measured values from publication PMC9968064, “First Synthesis of DBU-Conjugated Cationic Carbohydrate Derivatives and Investigation of Their Antibacterial and Antifungal Activity” (International Journal of Molecular Sciences, 2023).
Entries after “also recorded” stand apart in the source; their conditions may differ. Like-named read-outs stand apart in the source and are kept apart here.

How the values were obtained:
[1] = test system: Escherichia coli (ATCC 8739); test: MIC determination (antibacterial susceptibility test, CLSI / Hungarian Pharmacopeia); format: cell-based; details: Escherichia coli, ATCC8739, tested range 6.25–100 µg/mL
Procedure: (§1) The antimicrobial activity of twenty-two cationic hexopyranoside-amidinium salts (3, 10, 11, 12, 21, 22, 23, 24, 29, 30, 32, 37, 38, 45, 46, 47, 48, 49, 50, 51, 52 and 53) were compared in susceptibility tests (Table 2). The effectiveness of all compounds was tested on Staphylococcus aureus ssp. aureus (ATCC 6538), Escherichia coli (ATCC 8739) and Candida albicans (ATCC 10231). We tested the antimicrobial activity of the compounds at the concentration range of 6.25–100 µg/mL.
(§2) The detection of the antibacterial and antifungal effects of the tested compounds and the determination of the minimum inhibitory concentration (MIC) were carried out based on the method of CLSI [48] and Hungarian Pharmacopeia (chapters VIII. 2.6.12–13.).
(§3) For the antimicrobial studies, we used three human pathogens as test organisms: Candida albicans (ATCC 10231), Staphylococcus aureus subspecies aureus (ATCC 6538) and Escherichia coli (ATCC 8739).
(§4) Staphylococcus aureus subspecies aureus and Escherichia coli were cultured on tryptic soya agar (TSA) for 18–24 h at 37 °C. Candida albicans was cultured on Sabouraud dextrose agar (SDA) for 18–24 h at 37 °C. To obtain cells for suspension, we made cell suspensions from Staph. aureus, E. coli and C. albicans with the cotton swab suspension technique. The dilution of suspension was then made with 0.85% NaCl solution, absorbance being set to A600nm = 0.06. a volume of 10 μL of these suspensions contained ~4.5–6.0 × 10^4 colony forming unit (CFU) (bacteria) and ~1.5–2.0 × 10^3 CFU for yeast.
(§5) Tested agents were diluted with DMSO; the concentration of stock solutions was 4 mg/mL; and to ensure sterility, the closed sample containers were incubated at 35 °C for 1 h. The highest final concentration was 100 μg/mL.
(§6) Testing was performed in 24-well plates, and cell suspensions were prepared with 0.85% NaCl solution. Stock solutions were made from the agents with DMSO (100%). Final concentrations of used compounds were 6.25–100 µg/mL. […] After inoculation, plates were incubated at 35 °C, and results were then read visually after 18–24 h. If microbial growth could not be detected, results were read visually after 72 h. If there was no growth after 72 h, incubation was continued till the fifth day of the experiment and the results were read visually and with plate reader at 600 nm after 120 h.
(§7) The MIC value of a compound was defined as the minimal concentration that inhibits the growth of bacteria and yeasts comparing to the control. The results of the antibacterial and antifungal tests were read visually after 24, 48, 72 and 120 h. The microbial growth was measured by plate reader at 600 nm after 120 h.

[2] = test system: Staphylococcus aureus ssp. aureus (ATCC 6538); test: as above; format: cell-based; details: for MIC: Staphylococcus aureus, ATCC6538, tested range 6.25–100 µg/mL
Procedure: as §1, §2, §3, §4, §5, §6, §7

[3] = test system: Candida albicans (ATCC 10231); test: MIC determination (antifungal susceptibility test); format: cell-based; details: for MIC: Candida albicans
Procedure: as §1, §2, §3, §4, §5
as §6, with “Final concentrations of used compounds were 6.25–100 µg/mL.” left out
as §7

[4] = test system: HaCaT (human keratinocyte) cell line; test: MTT viability test on HaCaT cells; format: cell-based; details: 24 h; for IC50: Homo sapiens, HaCaT, 50–3.125 µg/mL; for effect on HaCaT cell viability at antibacterially and antifungally active concentrations: ≤6.25 µg/mL
Procedure: The cytotoxic effect of six selected compounds (3, 10, 12, 21, 22 and 29) with promising antimicrobial activity was studied on HaCaT (human keratinocyte) cell lines. Using the MTT-test, we determined the viability of the cells (Figure 3), and the half maximal inhibitory concentration (IC50) values of the compounds are summarized in Table 4. The duration of tests was 24 h; the examined concentrations were: 50–25–12.5–6.25–3.125 µg/mL. The IC50 value of a compound was defined as the concentration that inhibits cell growth by 50% relative to the control. […], the medium containing the inhibitor was removed, and 10 μL MTT solution was added to the cells. The plates were then incubated for two hours at 37 °C. The medium from the wells was then carefully aspirated, and MTT formazan dissolved with 100 μL of DMSO aided by gentle agitation on a shaker. After 10 min at room temperature, the absorbances were read at 570 nm by an automatic plate reader. The percentage of viability reflecting the respiratory potential of the cell population in each well was expressed as (absorbance of treated cells/absorbance of control cells) × 100. IC50 values of tested agents were determined by Graphpad (Prism) semi-log line fitting (graphpad.com (8)). The MTT test was performed after treatment and removal of inhibitors followed by the addition of 10 μL of MTT solution to the cells. We tested the toxic effect of compounds 3, 10, 12, 21, 22 and 29 on HaCaT cell line. HaCaT is a spontaneously transformed, aneuploid keratinocyte, an adherent cell type derived from the epithelium of Human […] adult skin. The cell line was immortalized in 1986 under low calcium and high-temperature conditions. Cells were cultured in DMEM medium (iBiotech, Szigetszentmiklós, Hungary) containing 10% fetal bovine serum (FBS, iBiotech, Szigetszentmiklós, Hungary) and 1% antibiotic-antimycotic mix (Penicillin–Streptomycin–Neomycin).

[5] = test system: rat red blood cells; test: Hemolytic activity on rat red blood cells; format: cell-based, Sprague-Dawley rat; details: 15 min, 37 °C; for hemolysis compared to negative control PBS: 6.25 µg/mL; for hemolysis (haemoglobin release): 50 and 100 µg/mL, comparable to water positive control
Procedure: The hemolytic activity of compounds 10 and 22 was determined on freshly isolated rat red blood cells (Figure 4).
Blood was collected from a Sprague-Dawley rat into an EDTA tube. Erythrocytes were separated from blood by centrifugation at 1800 rpm for 8 min, washed 3 times with phosphate buffered saline (PBS), and resuspended in PBS. Aliquots of the cell suspension with the respective red blood cell number of 7 × 10^7 were added to PBS containing increasing concentrations of the test compounds or the vehicle DMSO. After gently mixing, each mixture was incubated at 37 °C for 15 min. The released hemoglobin into the supernatant was separated by a rapid centrifugation at 5000 rpm for 5 min. Finally, the absorbance of the released hemoglobin was measured at 540 nm using a Multiskan Go (ThermoFisher, Waltham, MA, USA) microplate reader. The absorbance values were compared to the absorbance of the sample kept in purified water during the incubation as positive control and given as percent hemolysis.

[6] = test system: Lactobacillus plantarum subsp. plantarum (ATCC 14917); test: Membrane permeabilization by SYTOX green staining; format: cell-based; details: 6.25 µg/mL; for membrane permeabilization (cellular fluorescence of SYTOX green): Figure 5
Procedure: In membrane permeabilization experiments, the Gram-positive Lactobacillus plantarum was used to test the effect of compounds 10 and 22 at 6.25 µg/mL for 48 h. Bacterial cells were stained with SYTOX green (SG) fluorescent dye, which is impermeable on intact membranes but easily penetrates through compromised membranes.
Lactobacillus plantarum subsp. plantarum (ATCC 14917) was purchased from ATCC (Manassas, VA, USA). The membrane permeabilization ability of compounds 10 and 22 was tested on L. plantarum and determined in the brain heart infusion medium (BHI) (CliniChem Ltd., Budapest, Hungary). Bacterial cells were treated with the test compounds at the final concentration of 6.25 µg/mL and samples were taken at 1, 4, 8, 24 and 48 h. Samples were stained with SYTOX green fluorescent dye (ThermoFischer Scientific, Budapest, Hungary) at 1 µM final concentration for 30 min at 37 °C, and flow cytometric measurements were carried out with a Guava Easy Cyte 6HT-2L flow cytometer (Merck Ltd., Darmstadt, Germany). Green (525/30 nm) and red (695/50 nm) fluorescence channels were used to gate out the cells on a green versus red dot plot. The ratio of the SYTOX green (SG) positive bacterial cells was evaluated.

[7] = test system: Escherichia coli (ATCC 8739); set-up: method as in PMID 24144185; details: reference antibiotics; cited from earlier work
[8] = test system: Staphylococcus aureus ssp. aureus (ATCC 6538); set-up: method as in PMID 22866984; details: reference antibiotics; cited from earlier work
[9] = test system: Candida albicans (ATCC 10231); set-up: method as in PMID 32349998, PMID 25392352; details: reference antifungal; cited from earlier work
[10] = ATCC10231, 10× diluted, tested range 0.625–10.0 µg/mL, read-out: MIC Candida albicans (ATCC 10231), lower concentrations
[11] = ATCC10231, tested range 6.25–100 µg/mL, read-out: MIC Candida albicans (ATCC 10231)

CCS[C@H]1O[C@H](C[N+]2=C3CCCCCN3CCC2)[C@@H](OCc2ccc3ccccc3c2)[C@H](OCc2ccccc2)[C@H]1OCc1ccccc1 [Compound 10]
MIC [1]: ≥ 100 µg/mL | MIC [2]: < 6.25 µg/mL | MIC Candida albicans (ATCC 10231), lower concentrations ([3]; 10× diluted, tested range 0.625–10.0 µg/mL): 5.0 µg/mL | MIC [3, 10]: 5 µg/mL | MIC [3, 11]: < 6.25 µg/mL | cytotoxic effect on HaCaT cells (in words) [4]: only slight cytotoxicity; also recorded: greatly reduced toxicity | IC50 [4]: 15.3 ± 0.78 µg/mL | effect on HaCaT cell viability at antibacterially and antifungally active concentrations [4]: hardly affected the cell viability | hemolysis compared to negative control PBS [5]: did not cause significant hemolysis | hemolysis (haemoglobin release) [5]: significantly increased the hemolysis; also recorded: significant haemoglobin release | membrane permeabilization (cellular fluorescence of SYTOX green) [6]: increased membrane permeabilization | ratio of SYTOX green (SG) positive cells ([6]; after 1 h of incubation): increased the ratio of SG-positive cells | ratio of SYTOX green (SG) positive cells ([6]; after 4 h of incubation): drastically increased

CCS[C@H]1O[C@H](C[N+]2=C3CCCCCN3CCC2)[C@@H](OCc2ccc3ccccc3c2)[C@@H](OCc2ccccc2)[C@H]1OCc1ccccc1 [Compound 29]
MIC [1]: > 100 µg/mL | MIC [2]: 6.25 to 50 µg/mL | MIC Staphylococcus aureus (ATCC 6538) ([2]; tested range 6.25–100 µg/mL): <12.5 µg/mL | MIC [3, 10]: 2.5 µg/mL | MIC [3, 11]: < 6.25 µg/mL | cytotoxic effect on HaCaT cells (in words) [4]: only slight cytotoxicity; also recorded: greatly reduced toxicity | IC50 [4]: 11.9 ± 0.25 µg/mL

CNC(C)C1CCC(N)C(OC2C(N)CC(N)C(OC3OCC(C)(O)C(NC)C3O)C2O)O1 (centres unmarked) [Gentamicin]
MIC Escherichia coli (ATCC 8739) [7]: 8 [42] µg/mL | MIC Staphylococcus aureus (ATCC 6538) [8]: 8 [43, 44, 45] µg/mL

C[C@@H]1[C@H](O)[C@@H](C)/C=C/C=C/C=C/C=C/C=C/C=C/C=C/[C@H](O[C@@H]2O[C@H](C)[C@@H](O)[C@H](N)[C@@H]2O)C[C@@H]2O[C@](O)(C[C@@H](O)C[C@@H](O)[C@H](O)CC[C@@H](O)C[C@@H](O)CC(=O)O[C@H]1C)C[C@H](O)[C@H]2C(=O)O [Amphotericin B]
MIC Candida albicans (ATCC 10231) [9]: <0.5 [46, 47] µg/mL

CO[C@H]1O[C@H](C[N+]2=C3CCCCCN3CCC2)[C@@H](OCc2ccccc2)[C@H](OC(=O)c2ccccc2)[C@H]1OC(=O)c1ccccc1 [Compound 3, 8-N-[methyl 6-deoxy-6-yl-2,3-di-O-benzoyl-4-O-benzyl-α-D-glucopyranoside]-1,8-diazabicyclo(5.4.0)undec-7-ene-iodide]
MIC [1]: > 100 µg/mL | MIC [2]: 6.25 to 50 µg/mL | cytotoxic effect on HaCaT cells (in words) [4]: strongest cytotoxic effect | IC50 [4]: 0.13 ± 0.06 µg/mL

c1ccc(CO[C@@H]2[C@H](OCc3ccccc3)[C@@H](Sc3ccccc3)O[C@H](C[N+]3=C4CCCCCN4CCC3)[C@H]2OCc2ccc3ccccc3c2)cc1 [Compound 22]
MIC [1]: ≥ 100 µg/mL | MIC [2]: < 6.25 µg/mL | MIC [3, 10]: 2.5 µg/mL | MIC [3, 11]: < 6.25 µg/mL | cytotoxic effect on HaCaT cells (in words) [4]: only slight cytotoxicity; also recorded: greatly reduced toxicity | IC50 [4]: 10.3 ± 0.41 µg/mL | effect on HaCaT cell viability at antibacterially and antifungally active concentrations [4]: hardly affected the cell viability | hemolysis compared to negative control PBS [5]: did not cause significant hemolysis | hemolysis (haemoglobin release) [5]: significantly increased the hemolysis; also recorded: significant haemoglobin release | membrane permeabilization (cellular fluorescence of SYTOX green) [6]: increased membrane permeabilization | ratio of SYTOX green (SG) positive cells ([6]; after 1 h of incubation): increased the ratio of SG-positive cells | ratio of SYTOX green (SG) positive cells ([6]; after 4 h of incubation): drastically increased

CC(C)(O/N=C(\C(=O)N[C@@H]1C(=O)N2C(C(=O)[O-])=C(C[n+]3ccccc3)CS[C@H]12)c1csc(N)n1)C(=O)O [Ceftazidime]
MIC Escherichia coli (ATCC 8739) [7]: 8 [42] µg/mL | MIC Staphylococcus aureus (ATCC 6538) [8]: 8 [43, 44, 45] µg/mL
